Results from patent publication US12636342B2, “TARS derived from Akkermansia muciniphila or fragment thereof, and use thereof” (KOREA RESEARCH INSTITUTE OF BIOSCIENCE AND BIOTECHNOLOGY, priority 2020, dated 2026).

Experiments:
BMDMs = experiment: AmTARS-stimulated BMDMs pre-treated with kinase/CREB inhibitors; assay type: cell-based, mouse; settings: for IL-10 production by AmTARS: BMDMs pre-treated 1 h with inhibitor (10 μM; 666-15 1 μM) before AmTARS 24 h; for macrophage polarization (CD206 positive) by AmTARS: BMDMs pre-treated 1 h with inhibitor before AmTARS 24 h
Description: (A and B) Analysis of key molecules that inhibit the MAPK and PI3K/AKT signaling pathways. IL-10 produced by BMDMs pre-treated with inhibitors of ERK (PD98059, […]), p38 (SB203580, […]), MSK1/2 (SB747651A, 10 μM), CREB (666-15, 1 μM), PI3K (Wortmannin, 10 μM), and AKT1/2 (AKT1/2, 10 μM) for 1 h before treatment with either PBS or AmTARS for 24 h (n=6 per group) (A). Flow cytometry analysis of M2 macrophages in BMDMs pre-treated for 1 h with the indicated kinase inhibitors, before treatment with either PBS or AmTARS for 24 h (n=3 per group) (B). (C and D) Western blot analysis of MAPK signaling molecules in lysates of BMDMs (C) or THP1 cells (D) treated for different times with 0.5 μM AmTARS. (E) Western blot analysis of lysates of BMDMs pre-treated with α-IgG (Isotype, 1 μg ml-1) or α-TLR2 (1 μg ml-1) for 1 h before treatment with PBS, AmTARS (0.5 μM), or Pam3 (0.5 μM) for 30 min. (F and G) Western blot analysis of PI3K/AKT signaling molecules in lysates of BMDMs (F) or THP1 cells (G) treated with 0.5 μM AmTARS. […] Activation of AKT, ERK, and CREB was measured by western blot analysis of lysates of THP1 cells pre-treated with α-IgG, α-TLR1, α-TLR2, or α-TLR6 (1 μg ml-1) for 1 h before treatment for 30 min with PBS or AmTARS (0.5 µM). […] P-values were calculated using an unpaired two-tailed Student's t-test. Data shown in (C-H) are representative and repeated at least three times.
To identify the signaling pathway triggered by AmTARS, we first evaluated kinases and CREB. IL-10 production and M2 polarization were measured in BMDMs treated with inhibitors of ERK (PD98059), p38 (SB203580), MSK1/2 (SB747651A), CREB (666-15), PI3K (Wortmannin) and AKT (AKT1/2) before subsequent stimulation with AmTARS.

[1] = test system: mouse bone marrow-derived macrophages (BMDMs); experiment: ELISA of immune cytokine secretion in LPS-treated BMDMs (inflammatory environment); assay type: cell-based
Description: To determine whether AmTARS affects immune cytokine secretion when cellular inflammation was induced, mouse bone marrow-derived macrophages BMDMs as mouse-derived immune cells and human macrophages THP1 as human-derived immune cells were cultured by way of the same method as in Example 2.
Specifically, the cultured BMDMs and THP1 were treated with lipopolysaccharide (LPS) to induce an inflammatory response and were simultaneously treated with AmTARS at 0.1 μM, 0.2 μM, and 0.5 μM for 24 h to obtain cell cultures. The obtained cell cultures were analyzed for immune cytokine secretion by way of the same method as in Example 2.
Next, BMDMs were treated with LPS to create an inflammatory environment by way of the same method as in Example 3, and then treated with each TARS (AmTARS, BfTARS, eTARS, and hTARS) to investigate the secretion of IL-10.
An inflammatory environment was created through LPS in BMDMs by way of the same method as in Example 3, and then the cells were treated with the four types of fragments, and the immune cytokine secretion was determined by ELISA.

[2] = test system: mouse bone marrow-derived macrophages (BMDMs); experiment: ELISA of immune cytokine secretion in BMDMs under normal conditions; assay type: cell-based; settings: normal (non-inflammatory) conditions, 24 h
Description: Specifically, mouse bone marrow-derived macrophages (BMDMs) as mouse-derived immune cells were extracted from the mouse thighbone and shinbone, and then cultured in DMEM containing 10% fetal bovine serum (FBS) and antibiotics. Human macrophages (THP1) as human-derived immune cells were cultured in RPMI media containing 10% FBS and antibiotics.
The cultured cells were treated with AmTARS at 0.1 μM, 0.2 μM, and 0.5 μM for 24 h to obtain cell cultures. For cell removal, the media were centrifuged at 500×g for 10 min to obtain supernatants, which were then analyzed using an ELISA set (mouse interleukin (IL)-6, mouse IL-10, mouse tumor necrosis factor (TNF)-α, human IL-6, human IL-10, human TNF-α; BD Biosciences) to investigate the secretion of mouse- and human-derived immune cytokines. […]

[3] = Aminoacylation reaction (malachite green phosphate assay); assay type: biochemical; settings: L-threonine, ATP, 30 min, free Pi at 620 nm
Description: TARS is an […] involved in protein synthesis, and the domain and site involved in its function are well known. The constructed deletion mutants were confirmed to have deletions of parts irrelevant to the function, but the aminoacylation reaction experiment was conducted to determine whether the deletion mutants performed the intrinsic functions thereof appropriately.
Specifically, a 2× reaction solution (100 mM Tris-HCl (pH 7.5), 20 mM MgCl2, 200 mM NaCl, 200 mM KCl, 2 mM DTT, 500 μM ATP, and 5 mM L-threonine) was prepared, and 25 μL of a reaction solution, 20 μL of distilled water, and 5 μL of protein were added to make a final 50 μL volume, followed by incubation for 30 min. Thereafter, a reaction was conducted using a malachite green phosphate assay kit (Bioassay Systems) for 30 min, and the free monophosphate group (Pi) was measured at a wavelength of 620 nm.

[4] = LPS-induced inflammatory environment, 24 h

Molecule	IL-10 production by AmTARS (BMDMs)	macrophage polarization (CD206 positive) by AmTARS (BMDMs)	secretion of IL-10 [1, 4]	also measured
COc1cccc(-c2cc(=O)c3ccccc3o2)c1N [PD98059]	significant suppression	significant suppression		
C[S+]([O-])c1ccc(-c2nc(-c3ccncc3)c(-c3ccc(F)cc3)[nH]2)cc1 (stereo not shown) [SB203580]	significant suppression	significant suppression		
R2: Functional site 2 peptide, SEQ ID NO: 4, residues 290-312 of SEQ ID NO: 1 (KLSQEGASCAELFNGLATGTIEG; Functional region 2(290˜312))			increased	secretion of IL-6 ([1]; LPS, peptide 100 μM): reduced; secretion of IL-10 ([1]; LPS, peptide 100 μM): increased; secretion of IL-6 ([1]; LPS, peptide 300 μM): reduced; secretion of IL-10 ([1]; LPS, peptide 300 μM): increased; secretion of IL-6 [1, 4]: reduced
O=c1[nH]c2ccccc2n1C1CCN(Cc2ccc(-c3nc4cc5[nH]cnc5cc4nc3-c3ccccc3)cc2)CC1 [AKT1/2]	significant suppression	significant suppression		
CCn1c(-c2nonc2N)nc2cncc(CNC3CCNCC3)c21 [SB747651A]	significant suppression	significant suppression		
BfTARS: TARS derived from Bacteroides fragilis (protein, 6xHis tag; misc_feature 1..1941 Bacteroides fragilis TARS) MIKITFPDGSVREYNEGVNGLQIAESISSRLAQDVLACGVNGEIYDLGRPINEDASVVLYKWEDEQGKHAFWHTSAHLLAEALQELYPGIQFGIGPAIENGFYYDVDPGEAVIKEADLPAIEAKMAELVAKKEAVVRRDIAKGDALKMFGDRGETYKCELISELEDGHITTYTQGDFTDLCRGPHLMTTAPIKAIKLTSVAGAYWRGHEDRKMLTRIYGITFPKKKMLDEYLALMEEAKKRDHRKIGKEMQLFMFSDTVGKGLPMWLPKGTALRLRLQDFLRRIQTRYDYQEVITPPIGNKLLYVTSGHYAKYGKDAFQPIHTPEEGEEYFLKPMNCPHHCEIYKNFPRSYKDLPLRIAEFGTVCRYEQSGELHGLTRVRSFTQDDAHIFCRPDQVKGEFLRVMDIISIVFRSMDFDNFEAQISLRDKVNREKYIGSDENWEKAEQAIIEACEEKGLKAKIEYGEAAFYGPKLDFMVKDAIGRRWQLGTIQVDYNLPERFELEYMGSDNQKHRPVMIHRAPFGSMERFVAVLIEHTAGKFPLWLTPEQVVILPISEKFNEYAEKVKTYLKMKEIRAIVDDRNEKIGRKIRDNEMKRIPYMLIVGEKEAENGEVSVRRQGEGDKGTMKFEEFGEILNEEVQNMINKW			not significantly increased	
hTARS: TARS derived from Homo sapiens (protein, 6xHis tag; misc_feature 1..2175 Homo sapiens TARS) MFEEKASSPSGKMGGEEKPIGAGEEKQKEGGKKKNKEGSGDGGRAELNPWPEYIYTRLEMYNILKAEHDSILAEKAEKDSKPIKVTLPDGKQVDAESWKTTPYQIACGISQGLADNTVIAKVNNVVWDLDRPLEEDCTLELLKFEDEEAQAVYWHSSAHIMGEAMERVYGGCLCYGPPIENGFYYDMYLEEGGVSSNDFSSLEALCKKIIKEKQAFERLEVKKETLLAMFKYNKFKCRILNEKVNTPTTTVYRCGPLIDLCRGPHVRHTGKIKALKIHKNSSTYWEGKADMETLQRIYGISFPDPKMLKEWEKFQEEAKNRDHRKIGRDQELYFFHELSPGSCFFLPKGAYIYNALIEFIRSEYRKRGFQEVVTPNIFNSRLWMTSGHWQHYSENMFSFEVEKELFALKPMNCPGHCLMFDHRPRSWRELPLRLADFGVLHRNELSGALTGLTRVRRFQQDDAHIFCAMEQIEDEIKGCLDFLRTVYSVFGFSFKLNLSTRPEKFLGDIEVWDQAEKQLENSLNEFGEKWELNSGDGAFYGPKIDIQIKDAIGRYHQCATIQLDFQLPIRFNLTYVSHDGDDKKRPVIVHRAILGSVERMIAILTENYGGKWPFWLSPRQVMVVPVGPTCDEYAQKVRQQFHDAKFMADIDLDPGCTLNKKIRNAQLAQYNFILVVGEKEKISGTVNIRTRDNKVHGERTISETIERLQQLKEFRSKQAEEEF			not significantly increased	
eTARS: TARS derived from E. coli (protein, 6xHis tag; misc_feature 1..1929 Escherichia coli TARS) MPVITLPDGSQRHYDHAVSPMDVALDIGPGLAKACIAGRVNGELVDACDLIENDAQLSIITAKDEEGLEIIRHSCAHLLGHAIKQLWPHTKMAIGPVIDNGFYYDVDLDRTLTQEDVEALEKRMHELAEKNYDVIKKKVSWHEARETFANRGESYKVSILDENIAHDDKPGLYFHEEYVDMCRGPHVPNMRFCHHFKLMKTAGAYWRGDSNNKMLQRIYGTAWADKKALNAYLQRLEEAAKRDHRKIGKQLDLYHMQEEAPGMVFWHNDGWTIFRELEVFVRSKLKEYQYQEVKGPFMMDRVLWEKTGHWDNYKDAMFTTSSENREYCIKPMNCPGHVQIFNQGLKSYRDLPLRMAEFGSCHRNEPSGSLHGLMRVRGFTQDDAHIFCTEEQIRDEVNGCIRLVYDMYSTFGFEKIVVKLSTRPEKRIGSDEMWDRAEADLAVALEENNIPFEYQLGEGAFYGPKIEFTLYDCLDRAWQCGTVQLDFSLPSRLSASYVGEDNERKVPVMIHRAILGSMERFIGILTEEFAGFFPTWLAPVQVVIMNITDSQSEYVNELTQKLSNAGIRVKADLRNEKIGFKIREHTLRRVPYMLVCGDKEVESGKVAVRTRRGKDLGSMDVNEVIEKLQQEIRSRSLKQLEE			not significantly increased	secretion/production of IL-10 [2]: no anti-inflammatory immune function
Akkermansia muciniphila-derived YARS (protein, 6xHis tag; misc_feature 1..1182 Akkermansia muciniphila YARS, Akkermansia muciniphila tyrosyl-tRNA synthetase, used as control) MTIDEQLDILMGGTAVVISREELKERLKLGRPLRVKLGVDPTAPDIHLGHTVAIEKLRQFQELGHQAVLLIGDFTATIGDPSGRSVTRPPLSREQVLENAETYTKQAFKILDRDKTEIVYNGDWFRKMTYEEVLKLNSRVTMQQMLAREDFKARVEGGKEVRLHEMQYPIMQGWDSVEIRADVELGGTDQLFNILVGRDLQKEEGMLPQIAMTMPLLEGLDGVRKMSKSYGNYVGVDESPEMMFGKMMSASDELMDRYYLVLLGEKRDMGLHPMEAKKLLAWKITARYHDSAAADAARSDWETRFSKRDLAAADLPEVEIASLPADMNALALVSFLFENVFQVKKSNGVLRKEHFTPGAIQLNDVKMTDPSAVLELAPGSILRLSKKHAVRFK				aminoacylation reaction / enzymatic activity [3]: no reaction
